Laboratory results reported in publication PMC12472621, “Excavating Precursors from Herb Pairs Polygala tenuifolia and Acori tatarinowii: Synthesis and Anticonvulsant Activity Evaluation of 3,4,5-Trimethoxycinnamic Acid (TMCA) Piperazine Amide Derivatives” (Pharmaceuticals, 2025).
Where two headings read alike, the source gives them in different places.

Tests used:
scPTZ-induced seizures [1] = assay: Pentylenetetrazole (PTZ)-induced seizure test (scPTZ); format: in vivo; settings: 100 mg/kg i.p., PTZ 85 mg/kg s.c., mice
Experimental: (§1) Male Kunming mice (23–28 g) were maintained under controlled conditions with ad libitum access to standard pellet diet and water. Test compounds were formulated immediately prior to administration in normal saline containing 0.5% Tween-80. Our experiment was authorized by the Institutional Animal Care and Use Committee of Shaanxi University of Chinese Medicine (animal ethics certificate number: SUCMDL20210309027).
Seizures were induced by subcutaneous (s.c.) administration of PTZ (85 mg/kg in 1% v/v Tween-80/0.9% NaCl), 30 min after compound treatment. This dose produces clonic seizures (≥5 s duration) in 97% of naive mice. Latency to seizure onset was recorded during continuous observation.

LDH enzyme = assay: In vitro LDH assay; format: biochemical
Experimental: Employing the commercial LDH enzyme (Solarbio Life Science, Beijing, China, CAS:9001-60-9, Lot. Document No. 14240222001) includes a colorimetric assay kit designed to assess the synthesized substances’ capacity to suppress the LDH enzyme, using established techniques with slight alterations. In summary, a 96-well microplate was filled with 30 μL of LDH enzyme (300 U/mL) and 70 μL of the inhibitor mixture (0.1 mM in final concentration). Following a 10 min pre-incubation process at ambient temperature, […] of NADH (0.2 mM) was introduced. Subsequently, each well received 40 μL of phosphate buffer (20 mM, pH 6.8), reaching a total volume of 250 μL, followed by a 10 min incubation of the assay plate at 28 °C. Subsequently, […] absorbance was gauged at 340 nm utilizing a SpectraMax 190 Absorbance Microplate Reader (Molecular Devices, San Jose, CA, USA). […] In the initial screening, the level of suppression by the test substances was denoted as a percentage (%). The calculation for the LDH inhibition ratio was as follows:Inhibition (%) = [(Asample − Ablank)/Acontrol] × 100%
Asample denotes the OD340 absorbance of test compound and Ablank is the OD340 absorbance for the blank. Acontrol represents the OD340 absorbance of control.

[2] = system: maximal electroshock (MES) induced seizures; assay: Maximal electroshock (MES) test; format: in vivo, mice; settings: Mus musculus, ip
Excerpt: as §1
The MES test carried out following the method of Swinyard. A 60 Hz current (50 mA; 0.25 s duration) was delivered via corneal electrodes using a YSD-4G electro convulsion meter (Zhenghua Instruments, Huaibei, China, SN: ZH0056232). […] Test compounds were suspended in an identical vehicle. Protection was defined as abolition of tonic hindlimb extension.

mice [3] = assay: Acute neurotoxicity screening (rotarod test); format: in vivo; settings: i.p., 30 min post-administration, 95% confidence intervals in parentheses
Experimental: as §1
(§2) Neurotoxicity was assessed via a rotarod test. Mice were trained to maintain balance on a rotating rod (diameter: 4 cm; 24 rpm). Trained animals received i.p. injections of test compounds or reference drugs. At 30 min post-administration, neurologic impairment was defined as failure to remain on the rod for 3 min (≥3 falls within the testing period). Data were used to calculate TD50 values.

[4] = Acute neurotoxicity screening (rotarod test); format: in vivo, mice; settings: male, Kunming, mouse, in vivo, ip, 30 min post-administration, 95% confidence intervals in parentheses
Experimental: as §1, §2

LDH [5] = settings: original ligand of the LDH co-crystal complex; cited from earlier work
scPTZ-induced seizures [6] = system: scPTZ-induced seizures; design: method as in PMID 31539780; settings: reference drug; cited from earlier work
LDH [7] = assay: Immunofluorescence staining for LDH in hippocampus; format: in vivo; settings: hippocampus CA1, PTZ model mice
Experimental: Brain samples were extracted, preserved in 4% paraformaldehyde for a day, and subsequently immersed in a 30% sucrose solution to dehydrate. Post OCT embedding, slices of brain tissue measuring 16 μm in thickness were sliced using a cryostat. Following the permeabilization using 0.5% TritonX-100 and subsequent blocking with 10% goat serum at ambient temperature to remove nonspecific staining, the tissue samples were subjected to overnight incubation at 4 °C with the primary antibody, LDHA (Proteintech (Rosemont, IL, USA), Cat No. 19987-1-AP, Lot: 00106920, rabbit anti-rat 1:200). On the next day, the slides underwent incubation using a secondary antibody. The slides underwent counterstaining using DAPI. […] slices were examined and visualized utilizing the VS200-BU Slide Scanner (Olympus Corporation, Tokyo, Japan).

mice [8] = system: mice; design: method as in PMID 31539780; settings: reference drug; cited from earlier work
[9] = system: neurons in CA1 and CA3 regions of the hippocampus; assay: Silver staining of hippocampal tissue; format: in vivo; settings: PTZ model mice, compared with PTZ group
Experimental: Following the creation of the PTZ model, a modified version of the silver impregnation staining technique was applied for silver staining, enabling the observation of changes in neuronal fibers and synapses throughout diseases. Brain tissue slices from each mouse, encased in paraffin, underwent deparaffinization using xylene and absolute ethanol, followed by a treatment in acidic formaldehyde, and then incubation in a glycine–silver mixture. Following the application of a reducing solution for staining, the samples were analyzed using an optical microscope. Against a yellow backdrop, nerve cells’ axons, dendrites, collagen fibers, and neurofibrillary tangles were colored in dark brown or black.

Compound: C/C=C/c1ccc(OC(=O)CCCN2CCN(C(=O)/C=C/c3cc(OC)c(OC)c(OC)c3)CC2)c(OC)c1 [A3, methoxy-4-((E)-prop-1-en-1-yl)phenyl 4-(4-((E)-3-(3,4,5-trimethoxyphenyl)acryloyl)piperazin-1-yl)butanoate]
- SCPTZ Latent Time (100 mg/kg, s) (scPTZ-induced seizures [1]): 222.0 ± 14.7 s
- SCPTZ Protective Ratio (100 mg/kg) (scPTZ-induced seizures [1]): 1/4
- LDH Inhibition Ratio (0.1 mM) (LDH enzyme): 37.6 ± 8.1%
- responders at 100 mg/kg ([2]; 100 mg/kg i.p., mice, 0.5 h, read-out: MES model, protected mice/total mice, 0.5 h (converted)): 100%
- responders at 100 mg/kg ([2]; 100 mg/kg i.p., mice, 1 h, read-out: MES model, protected mice/total mice, 1 h (converted)): 75%
- responders at 100 mg/kg ([2]; 100 mg/kg i.p., mice, 2 h, read-out: MES model, protected mice/total mice, 2 h (converted)): 50%
- responders at 100 mg/kg ([2]; 100 mg/kg i.p., mice, 3 h, read-out: MES model, protected mice/total mice, 3 h (converted)): 25%
- ED50 ([2]; mice, 95% confidence intervals in parentheses): 73.3 mg/kg
- TD50 (mice [3]): weak neurotoxicity
- TD50 at 30 min [4]: 443 mg/kg

Compound: O=C1N[C@](c2ccc(N3CCOCC3)cc2)(c2ccsc2)CC(O)=C1Sc1ccccc1Cl [GEN-140]
- IC50 (LDH [5]): 3 nM

Compound: CC(C)(C)C(O)/C=C/c1ccc2c(c1)OCO2 (stereo not drawn) [STP, Stiripentol, reference compound]
- SCPTZ Latent Time (100 mg/kg, s) (scPTZ-induced seizures [6]): 269.5 ± 19.8 s
- SCPTZ Protective Ratio (100 mg/kg) (scPTZ-induced seizures [6]): 2/4
- LDH immunolabelling intensity (LDH [7]): lower than the values found in the PTZ group
- LDH Inhibition Ratio (0.1 mM) (LDH enzyme): 46.1 ± 6.2%
- responders at 100 mg/kg ([2]; 0.5 h, read-out: MES model, protected mice/total mice, 0.5 h): 100%
- responders at 100 mg/kg ([2]; 1 h, read-out: MES model, protected mice/total mice, 1 h): 50%
- responders at 100 mg/kg ([2]; 2 h, read-out: MES model, protected mice/total mice, 2 h): 25%
- responders at 100 mg/kg ([2]; 3 h, read-out: MES model, protected mice/total mice, 3 h): 0%
- TD50 (mice [8]): 161.7 (146.2–256.2) mg/kg
- silver staining, neurons in hippocampal CA1 and CA3 [9]: alleviated symptoms
